Data set [1] addresses His-TEAD1[211-427] (recombinant murine TEAD1 residues 211-427 with polyhistidine tag, from E. coli) (mouse) (UniProt P30051). The data set is described as follows: photonic crystal nanobeam sensor, His-TEAD1[211-427] immobilized, curve fitted to the Langmuir equation.
Data set [2] deals with TEAD1-YAP transcriptional activity. The data set is described as follows: 8xGTIIC-Luci luciferase reporter assay in 293T cells with DOX-induced VGLL4. It is filed as cell-based. As for the experimental part: (§1) FIG. 7A is an immunoblot showing VGLL4 overexpression decreased TEAD1 protein level. Different doses of TEAD1 plasmids (indicated in μg) were co-transfected with 1.6 μg VGLL4-GFP plasmid. Cells were collected for western blot 24 hours after transfection. FIGS. 7B-7C show the generation and validation of TEAD1-Dendra2 construct. Tead1-Dendra2 plasmid was transfected into 293T cells. Western blot confirmed expression of TEAD1-Dendra2 fusion protein (FIG. 7B). TEAD1-Dendra2 merge fusion protein was green before illumination with 405 nm light. […] Cells were analyzed at the indicated time points. […] FIG. 7E is a graph showing the quantification of TEAD1-Dendra2 protein levels in FIG. 7D. *P<0.05. n=3. […] Relative red fluorescence intensity (RFI) was monitored for 20 minutes by taking one image per minute. n=6. […] Twenty-four (24) hours after transfection, cells were treated with Dox for the indicated number of hours, when cell extracts were analyzed for Firefly and Renilla luciferase activity. […]
The data indicates an additional mechanism, in which VGLL4 binding to TEAD1 promotes its degradation and thereby reduces the amount available to interact with YAP. To test additional mechanisms, the TEAD1 luciferase reporter 8xGTIIC-Luci (Dupont et al., 2011) was used as a read out of TEAD1-YAP transcriptional activity. […]

Data set [3] has as its system VGLL4-mediated TEAD1 degradation. In words: VGLL4-mediated TEAD1 degradation in co-transfected 293T cells (immunoblot). The settings on record: 293T cells co-transfected with TEAD1 and VGLL4, inhibitors for 6 hours. It is filed as cell-based. As for the experimental part:
HA-VGLL4 was cloned downstream of TetO promoter. pEF1α::rtTA was used to express rtTA. The expression of HA-VGLL4 will be activated in the presence of both Dox and rtTA. […] 293T cells were co-transfected with pEF1α::rtTA and pTetO::HA-Vgll4. Twenty-four (24) hours after transfection, cells were treated with […] Dox for different hours. Immunoblotting was carried out to detect the expression of HA-VGLL4. […] Mouse Tead1 specific primers were used to measure relative Tead1-Dendra2 mRNA level by qRT-PCR. FIG. 8D depicts an immunoblot showing TEAD1 degradation is dependent on cysteine proteases and is independent of the proteasome. 293T cells were first co-transfected with TEAD1^fb and Vgll4-GFP plasmids. 1 day after transfection, cells were treated with indicated inhibitors for 6 hours. Dimethyl sulfoxide (DMSO, 0.1%) was used as control vehicle. β-tubulin was used as loading control.
Major pathways for protein degradation can include the proteasome and cysteine, serine, and threonine peptidases. To determine if these candidate pathways are involved in VGLL4-mediated TEAD1 degradation, the effect of MG132 (a universal proteasome inhibitor (Lee et al., 1998)), leupeptin (an inhibitor of serine and threonine peptidases (Umezawa, 1976)) and E64 (an inhibitor specific to cysteine proteases (Barrett et al., 1982)) on VGLL4-mediated TEAD1 degradation was studied.
In general terms: Immunoblotting shows a protein as a band on a membrane.

Another data set relates to myocardial infarction. The note with it: Dong et al., 2007; cited from earlier work.
A further data set deals with TEAD1-Dendra2. In words: pulse-labeled TEAD1-Dendra2 live cell imaging in 293T cells. The settings on record: photoconverted TEAD1-Dendra2, Dox-induced VGLL4. The class given is cell-based. As for the experimental part: as §1
DOX-induced VGLL4 expression was combined with live cell imaging of TEAD1-Dendra2 to specifically probe the effect of VGLL4 on TEAD1 stability. […] In the absence of VGLL4, TEAD1-Dendra2 protein fluorescence intensity dropped by 10% during the first 10 minutes, and then became relatively stable. […]

In data set [4] the test system is high salt diet induced heart failure. The note with it: Cheng et al., 2008; cited from earlier work.
Data set [5] has as its target TEAD1-Dendra2 fusion protein (mouse) (UniProt P30051).
Data set [6] shares this target. This is another data set of the same source.
The conditions of data set [7]: clinical testing, Chen et al., 2013; cited from earlier work.

Regarding “synthetic non-acetylated VGLL4 TDU domain peptide with V5 epitope (from UniProt Q14135-4)”, the equilibrium dissociation constant (Kd) (usually the concentration at which binding is half-saturated) in data set [1] was 3.1 nM.

Turning to `CC(C)C[C@H](NC(=O)[C@H]1O[C@@H]1C(=O)O)C(=O)NCCCCN=C(N)N` (relative stereo) [E64, L-trans-Epoxysuccinyl-leucylamido(4-guanidino)butane], the “reduction of TEAD1 transcriptional activity caused by VGLL4 induction” value in data set [2] is recorded as “did not completely abrogate”. Besides, in data set [2] (8 hours after DOX treatment, P<0.05), the luciferase reporter activity result is “significantly increased reporter activity”. Further, the “VGLL4-mediated reduction of TEAD1 steady-state levels” value in data set [3] was “reduced VGLL4-mediated reduction of TEAD1 steady-state levels”. Also, in the data set with myocardial infarction, the “beneficial effect in myocardial infarction model” value is recorded as “did not show a beneficial effect”. In the data set on TEAD1-Dendra2, the “destabilizing effect of VGLL4 on TEAD1-Dendra2” value is “reduced the destabilizing effect of VGLL4 on TEAD1-Dendra2”. The “high salt diet induced heart failure” value in [4] was “attenuated high salt diet induced heart failure”.

For `CC(=O)N[C@@H](CC(C)C)C(=O)N[C@@H](CC(C)C)C(=O)N[C@H](C=O)CCCNC(=N)N` [leupeptin], in data set [3], the “VGLL4-mediated reduction of TEAD1 steady-state levels” value was “reduced VGLL4-mediated reduction of TEAD1 steady-state levels”.

“HA-VGLL4 (doxycycline-inducible, pTetO::HA-VGLL4)”: in data set [5], the red fluorescence intensity of photoconverted TEAD1-Dendra2 (time lapse imaging) is 18%. The compound also returned a red fluorescence intensity of photoconverted Dendra2 (time lapse imaging) in the data set with Dendra2 of 5%. In addition, in data set [6], the steady-state TEAD1-Dendra2 protein level after Dox (immunoblot) came out at 50%.

As for `CCOC(=O)[C@H]1O[C@@H]1C(=O)N[C@@H](CC(C)C)C(=O)NCCC(C)C` [E64d], in data set [7], the safety profile result is on record as “good safety profile”.

These data come from US20190175690A1, “COMPOSITIONS AND METHODS FOR CARDIAC REPAIR” (CHILDREN'S MEDICAL CENTER CORPORATION, priority 2016, published 2019).
